What was measured:
Experiment in all cases: combination Emax (second highest fraction inhibited in the dose matrix, 72 h); higher = more inhibition; extreme values may be limits of the assay
[1] = system: PANC-02-03 (Pancreatic Carcinoma)
Procedure, shortened: (§1)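 After 24 hours at 37°C and 5% CO2 in 1536-well plates, cells in DMEM/F12 or RPMI plus 10% FBS received two-drug dose matrices for 72 hours. Viability came from CellTiter-Glo 2.0 luminescence and was scaled as inhibition, anchored at 0 by vehicle wells and at 1 by blank wells. Combination Emax is taken as the second-highest inhibition in the matrix, and Bliss excess as the observed combination effect less EA + EB − EA·EB, with EA and EB the single-agent effects.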

[2] = system: SNU-175 (Colorectal Carcinoma)
Procedure, shortened: as §1

[3] = system: Caov-3 (Ovarian Carcinoma)
Procedure, shortened: as §1

[4] = system: BALL-1 (B-Lymphoblastic Leukemia)
Procedure, shortened: as §1

[5] = system: JHH-1 (Hepatocellular Carcinoma)
Procedure, shortened: as §1

[6] = system: NCI-H810 (Non-Small Cell Lung Carcinoma)
Procedure, shortened: as §1

[7] = system: RPMI-8866 (Chronic Myelogenous Leukemia)
Procedure, shortened: as §1

[8] = system: NCI-H1563 (Lung Adenocarcinoma)
Procedure, shortened: as §1

[9] = system: LAMA-84 (Chronic Myelogenous Leukemia)
Procedure, shortened: as §1

[10] = system: AN3-CA (Endometrial Carcinoma)
Procedure, shortened: as §1

[11] = system: Calu-6 (Non-Small Cell Lung Carcinoma)
Procedure, shortened: as §1

[12] = system: Becker (Low Grade Glioma)
Procedure, shortened: as §1

[13] = system: HTC-C3 (Thyroid Gland Carcinoma)
Procedure, shortened: as §1

[14] = system: SJRH30 (Rhabdomyosarcoma)
Procedure, shortened: as §1

[15] = system: RMG-I (Ovarian Carcinoma)
Procedure, shortened: as §1

[16] = system: LOUCY (T-Lymphoblastic Leukemia)
Procedure, shortened: as §1

[17] = system: KYSE-70 (Esophageal Squamous Cell Carcinoma)
Procedure, shortened: as §1

[18] = system: RERF-LC-KJ (Lung Adenocarcinoma)
Procedure, shortened: as §1

[19] = system: EB-3 (Burkitt's Lymphoma)
Procedure, shortened: as §1

786-0 (Kidney Carcinoma) = system: 786-0 (Kidney Carcinoma)
Procedure, shortened: as §1

Row | Structure (SMILES) | combination Emax [1] | combination Emax [2] | combination Emax [3] | combination Emax [4] | combination Emax [5] | combination Emax [6] | combination Emax [7] | combination Emax [8] | combination Emax [9] | combination Emax [10] | combination Emax [11] | combination Emax [12] | combination Emax [13] | combination Emax [14] | combination Emax [15] | combination Emax [16] | combination Emax [17] | combination Emax [18] | combination Emax [19] | combination Emax (786-0 (Kidney Carcinoma))
1 | Cc1cc2ncnn2cc1Nc1ncc2c(n1)n(C1CCOCC1)c(=O)n2C [AZD7648] + C[C@@H]1COCCN1C2=NC(=NC(=C2)C3(CC3)[S@](=N)(=O)C)C4=C5C=CNC5=NC=C4 [AZD6738] (first compound max 10 µM, 7x7, partner max 10 µM) | 0.555 | 0.537 | 0.773 | 0.986 | 0.476 | 0.697 | 0.969 | 0.498 | 0.947 | 0.435 | 0.741 | 0.607 | 0.802 | 0.801 | 0.53 | 1 | 0.414 | 0.349 | 0.663 | 0.694
2 | COc1cccc(OCCCN)c1-c1cc(Nc2cnc(C#N)cn2)n[nH]1 [Prexasertib] + CCc1c2c(nc3ccc(O)cc13)-c1cc3c(c(=O)n1C2)COC(=O)[C@]3(O)CC [SN-38] (first compound max 1 µM, 7x7, partner max 0.3 µM) | 0.756 | 0.734 | 0.984 | 1 | 0.75 | 0.98 | 1 | 0.629 | 1 | 0.946 | 0.862 | 0.816 | 0.966 | 0.984 | 0.505 | 1 | 0.869 | 0.903 | 0.87 | 0.938
3 | CC1(C)CCC(CN2CCN(c3ccc(C(=O)NS(=O)(=O)c4ccc(NCC5CCOCC5)c([N+](=O)[O-])c4)c(Oc4cnc5[nH]ccc5c4)c3)CC2)=C(c2ccc(Cl)cc2)C1 [Venetoclax] + CN(C)CCCOc1ccc(-c2ccc3ncc4c(c3c2)n(C2CCOCC2)c(=O)n4C)cn1 [AZD0156] (first compound max 1 µM, 7x7, partner max 1 µM) | 0.194 | 0.128 | 0.59 | 1 | 0.214 | 0.121 | 0.0785 | 0.406 | 0.339 | 0.227 | 0.199 | 0.434 | 0.205 | 0.177 | 0.348 | 1 | 0.104 | 0.278 | 0.343 | 0.195
4 | COc1cccc(OCCCN)c1-c1cc(Nc2cnc(C#N)cn2)n[nH]1 [Prexasertib] + C[C@@H]1COCCN1C2=NC(=NC(=C2)C3(CC3)[S@](=N)(=O)C)C4=C5C=CNC5=NC=C4 [AZD6738] (first compound max 1 µM, 7x7, partner max 10 µM) | 0.639 | 0.616 | 0.785 | 0.998 | 0.579 | 0.9 | 1 | 0.262 | 0.99 | 0.821 | 0.772 | 0.733 | 0.842 | 0.943 | 0.629 | 1 | 0.602 | 0.278 | 0.83 | 0.901
5 | CN(CCO)CC[C@H](CSc1ccccc1)Nc1ccc(S(=O)(=O)NC(=O)c2ccc(N3CCC([C@@H](O)c4ccccc4-c4ccc(Cl)cc4)CC3)cc2)cc1S(=O)(=O)C(F)(F)F [AZD4320] + C[C@@H]1COCCN1C2=NC(=NC(=C2)C3(CC3)[S@](=N)(=O)C)C4=C5C=CNC5=NC=C4 [AZD6738] (first compound max 1 µM, 7x7, partner max 10 µM) | 0.615 | 0.936 | 0.958 | 1 | 0.838 | 0.86 | 1 | 0.433 | 0.989 | 0.637 | 0.891 | 0.846 | 0.881 | 0.927 | 0.882 | 1 | 0.493 | 0.324 | 0.578 | 0.815

Source: the supplement of paper PMC11061612
